Reference: US20040005537A1, “Method of identifying toxic agents using differential gene expression” (priority 2000, published 2004)

Test system: rat heart tissue
Assay: GENECALLING differential gene expression analysis after dosing of serotonin modulating agents
Type: in vivo, Sprague Dawley rats
Description: Control animals received sterile water or canola oil. The animals were sacrificed 24 hours following the last dose. Liver tissue was dissected from the animals, and total RNA was recovered from the dissected tissue. cDNA was prepared and the resulting samples were processed through using GENECALLING™ differential expression analysis as described in U.S. Pat. No. 5,871,697 and in Shimkets et al., Nature Biotechnology 17:798-803 (1999). The contents of these patents and publications are incorporated herein by reference in their entirety.
Thousands of gene fragments were initially found to be differentially expressed in rat heart tissue in response to serotonin modulating agents in. Genes fragments whose expression levels were modulated greater than ±1.5-fold were selected for further analysis.
Column 6 of Table 1, entitled “Function”, lists the type of classification assigned for the protein, based on its function. The 210 single nucleic acid sequences identified herein, are referred to herein as CARDIOTOX 1-210.

Compound: CN1C[C@H](C(=O)N[C@]2(C)O[C@@]3(O)[C@@H]4CCCN4C(=O)[C@H](Cc4ccccc4)N3C2=O)C[C@@H]2c3cccc4[nH]cc(c34)C[C@H]21 [dihydroergotamine]
- Effects on Transcription Level: Novel gene fragment, 467 bp, 94% SI to mouse gelsolin [J04953] (CARDIOTOX 70): −1.6 fold
- Effects on Transcription Level: Novel gene fragment, 535 bp, 90% SI to mouse slow/cardiac troponin C [M29793] (CARDIOTOX 71): −1.7 fold
- Effects on Transcription Level: Novel gene fragment, 445 bp, 85% SI to human skeletal muscle alpha 2 actinin [M86406] (CARDIOTOX 72): −2.0 fold
- Effects on Transcription Level: Novel gene fragment, 246 bp, 89% SI to mouse ponsin-1 [AF078667] (CARDIOTOX 73): −3.5 fold
- Effects on Transcription Level: Novel gene fragment, 126 bp, 77% SI to human DNA sequence from cosmid V311G7, between markers DXS366 and DXS87 on chromosome X [Z69304] (CARDIOTOX 74): +1.8 fold
- Effects on Transcription Level: Novel gene fragment, 370 bp (CARDIOTOX 75): −2.0 fold
- Effects on Transcription Level: Novel gene fragment, 337 bp, 78% SI to novel human protein AHNAK [M80899] (CARDIOTOX 76): −4.1 fold
- Effects on Transcription Level: Novel gene fragment, 100 bp, 93% SI to human KIAA0750 protein [ABO18293] (CARDIOTOX 77): −9.3 fold
- Effects on Transcription Level: Novel gene fragment, 44 bp (CARDIOTOX 78): −9.0 fold
- Effects on Transcription Level: Novel gene fragment, 698 bp, 93% SI to mouse plenty-of-prolines-101 [AF062655] (CARDIOTOX 79): −1.9 fold
- Effects on Transcription Level: Novel gene fragment, 660 bp, 84% SI to mouse membrane protein TMS-2 [AF181685] (CARDIOTOX 80): −3.0 fold
- Effects on Transcription Level: Novel gene fragment, 115 bp (CARDIOTOX 81): −7.5 fold
- Effects on Transcription Level: Novel gene fragment, 294 bp, 95% SI to mouse Ndr1 related protein Ndr2 [AB033921] (CARDIOTOX 82): −3.3 fold
- Effects on Transcription Level: Novel gene fragment, 198 bp (CARDIOTOX 83): +2.6 fold
- Effects on Transcription Level: Novel gene fragment, 730 bp, 86% SI to mouse E800 [Y10968] (CARDIOTOX 84): −1.7 fold
- Effects on Transcription Level: Novel gene fragment, 294 bp, 98% SI to cysteine conjugate beta-lyase [S61960] (CARDIOTOX 85): −1.7 fold
- Effects on Transcription Level: Aconitase (CARDIOTOX 86, GenBank A1243266): −3.2 fold
- Effects on Transcription Level: Ribosomal protein L7 (CARDIOTOX 87, GenBank M17422): +2.7 fold
- Effects on Transcription Level: Ribosomal protein L9 (CARDIOTOX 88, GenBank X51706): +5.0 fold
- Effects on Transcription Level: Ribosomal protein L12 (CARDIOTOX 89, GenBank X53504): −2.0 fold
- Effects on Transcription Level: 18S, 5.8S, and 28S ribosomal RNA's (CARDIOTOX 90, GenBank V01270): +2.6 fold
- Effects on Transcription Level: Pyruvate dehydrogenase kinase 2 (PDK2) (CARDIOTOX 91, GenBank U10357): −5.8 fold
- Effects on Transcription Level: D-Binding Protein (DBP) (CARDIOTOX 92, GenBank J03179): −1.5 fold
- Effects on Transcription Level: Lipoprotein lipase (CARDIOTOX 93, GenBank L03294): −2.2 fold
- Effects on Transcription Level: Non-neuronal enolase (CARDIOTOX 94, GenBank X02610): +3.1 fold
- Effects on Transcription Level: Glycogen phosphorylase (muscle isozyme) (CARDIOTOX 95, GenBank L10669): −2.7 fold
- Effects on Transcription Level: Cytochrome c oxidase subunit IV (CARDIOTOX 96, GenBank X14209): +4.1 fold
- Effects on Transcription Level: Alpha-globin (CARDIOTOX 97, GenBank M17083): +3.9 fold
- Effects on Transcription Level: Beta-globin (CARDIOTOX 98, GenBank X06701): +3.3 fold
- Effects on Transcription Level: Myoglobin (CARDIOTOX 99, GenBank AF197916): +3.9 fold
- Effects on Transcription Level: Titin (CARDIOTOX 100, GenBank L38717): −5.4 fold
- Effects on Transcription Level: Skeletal muscle actin (CARDIOTOX 101, GenBank V01218): −14.3 fold
- Effects on Transcription Level: Myosin light chain 2 (MLC2) (CARDIOTOX 102, GenBank M11851): −1.5 fold
- Effects on Transcription Level: Alpha cardiac myosin heavy chain (CARDIOTOX 103, GenBank X15938): −2.5 fold
- Effects on Transcription Level: Troponin I (CARDIOTOX 104, GenBank U77354): +1.5 fold
- Effects on Transcription Level: Cardiac calsequestrin (CARDIOTOX 105, GenBank AF001334): −2.1 fold
- Effects on Transcription Level: Sulfated glycoprotein 2 (CARDIOTOX 106, GenBank M16975): −1.6 fold
- Effects on Transcription Level: Aquaporin 7 (CARDIOTOX 107, GenBank AB000507): +1.7 fold
- Effects on Transcription Level: Carnitine/acylcarnitine carrier protein (CARDIOTOX 108, GenBank X97831): −2.8 fold
- Effects on Transcription Level: Glu-Pro Dipeptide Repeat (CARDIOTOX 109, GenBank U40628): −5.1 fold
- Effects on Transcription Level: Cystatin beta (CARDIOTOX 110, GenBank X54737): +2.6 fold
- Effects on Transcription Level: Novel gene fragment, 593 bp, 90% SI to human calcineurin B-like protein [Z08983] (CARDIOTOX 111): +1.7 fold
- Effects on Transcription Level: Novel gene fragment, 179 bp, 88% SI to human titin [X90568] (CARDIOTOX 112): +6.0 fold
- Effects on Transcription Level: Novel gene fragment, 700 bp, 91% SI to mouse periplakin (PPL) [AF116523] (CARDIOTOX 113): +1.7 fold
- Effects on Transcription Level: Long chain acyl-CoA dehydrogenase (LCAD) (CARDIOTOX 114, GenBank J05029): +1.5 fold
- Effects on Transcription Level: Sulfated glycoprotein 1 (SGP-1) (CARDIOTOX 115, GenBank M19936): −1.7 fold
- Effects on Transcription Level: Catalase (CARDIOTOX 116, GenBank M11670): +1.6 fold
- Effects on Transcription Level: Alpha-fodrin (A2A) (Nonerythroid spectrin alpha subunit) (CARDIOTOX 117, GenBank AF084186): −1.5 fold
- Effects on Transcription Level: Cardiac specific sodium channel alpha-subunit (CARDIOTOX 118, GenBank M27902): −1.6 fold
- Effects on Transcription Level: Glu-Pro Dipeptide Repeat (CARDIOTOX 119, GenBank U40628): +1.9 fold
- Effects on Transcription Level: Novel gene fragment, 200 bp, 64% SI to human KIAA0733 protein [AB018316] (CARDIOTOX 120): −1.2 fold
- Effects on Transcription Level: RNA polymerase II transcription factor SIII (p18 subunit) (CARDIOTOX 121, GenBank L42855): +1.4 fold
- Effects on Transcription Level: Protein-tyrosine phosphalase (LRP) (CARDIOTOX 122, GenBank L01702): +1.4 fold
- Effects on Transcription Level: Skeletal muscle selenoprotein W (SelW) (CARDIOTOX 123, GenBank U25264): −1.4 fold
- Effects on Transcription Level: Sarcoplasmic reticulum 2+-Ca-ATPase (CARDIOTOX 124, GenBank X15635): −1.2 fold
- Effects on Transcription Level: Ribosomal protein S7 (CARDIOTOX 125, GenBank X53377): +1.7 fold
- Effects on Transcription Level: Ribophorin I (CARDIOTOX 126, GenBank X05300): +1.5 fold
- Effects on Transcription Level: Beta cardiac myosin heavy chain (CARDIOTOX 127, GenBank X15939): −1.6 fold
- Effects on Transcription Level: ADP-ribosylation factor 1 (CARDIOTOX 128, GenBank L12380): +1.3 fold
- Effects on Transcription Level: Laminin receptor (CARDIOTOX 129, GenBank U04942): +1.1 fold
- Effects on Transcription Level: Novel gene fragment, 206 bp, 89% SI to human seryl-tRNA synthetase [X91257] (CARDIOTOX 130): +2.0 fold
- Effects on Transcription Level: Annexin VI (CARDIOTOX 131, GenBank X86086): +3.5 fold
- Effects on Transcription Level: Novel gene fragment, 325 bp, 90% SI to mouse N-RAP [U76618] (CARDIOTOX 132): +1.4 fold
- Effects on Transcription Level: Novel gene fragment, 61 bp (CARDIOTOX 134) (LD10 dose for three days): −1.1 fold
- Effects on Transcription Level: Novel gene fragment, 337 bp (CARDIOTOX 133) (LD10 dose for three days): −1.2 fold
- Effects on Transcription Level: Novel gene fragment, 378 bp, 88% SI to human coatomer protein (COPA) [U24105] (CARDIOTOX 138) (LD10 dose for three days): +1.2 fold
- Effects on Transcription Level: Long chain 3-ketoacyl-CoA thiolase (CARDIOTOX 136) (LD10 dose for three days, GenBank D16479): −1.2 fold
- Effects on Transcription Level: TATA-binding protein interacting protein 120 (TIP120) (CARDIOTOX 135) (LD10 dose for three days, GenBank D87671): +1.1 fold
- Effects on Transcription Level: Serine protease (CARDIOTOX 139) (LD10 dose for three days, GenBank D88250): +1.2 fold
- Effects on Transcription Level: Thymosin beta-4 (CARDIOTOX 137) (LD10 dose for three days, GenBank M34043): +1.6 fold
